Data reported in patent publication EP0975351B1, “TREATMENT OF MULTIPLE SCLEROSIS THROUGH INGESTION OF COPOLYMER-1” (YEDA RESEARCH AND DEVELOPMENT CO. LTD., priority 1997, dated 1998).

Experiments:
[1] = test system: spleen cell cultures derived from mice; experiment: Cytokine secretion assay of spleen cells from fed mice (ELISA); type: cell-based; details: versus PBS fed control
Protocol: Induction and Assessment of EAE - Mice were injected with 200 µg GPBP emulsified in an equal volume of complete Freund's adjuvant (CFA) containing 4 mg/ml mycobacterium tuberculosis (H37Ra) (Difco Lab, Detroit, Mich.). The emulsion at a total volume of 0.1 ml was injected into all four footpads. Immediately after and 24 hours later, pertussis toxin (250ng/mouse) (Sigma) was injected intravenously.
Induction of Oral Tolerance - Mice were fed with 250 µg GPBP or glatiramer acetate dissolved in phosphate buffered saline (PBS) on days -7, -5, -3, 0, 2, 4 and 6 by gastric intubation with an 18-gauge stainless steel feeding needle (Thomas). EAE was induced on day 0.
Cytokine Secretion Assay - Spleens were removed 10-11 days after EAE induction and cells of 3 mice from each group were pooled. Cells (5x10^6/ml) were cultured in duplicates in 24 well plate in RPMI 1640 supplemented with 10% FCS (Fetal Calf Serum) in the presence or absence of antigen (GPBP 100 Fg/ml). Supematants were harvested after 24-40 hr of culture. Quantitative ELISA for IL-2, IFN-γ, IL-4, IL-6 and IL-10 were performed using paired mAbs specific for the corresponding cytokines (Pharmingen, La Jolla, CA) according to the manufacturer's instructions.

EAE [2] = experiment: Suppression of MSCH-induced EAE in mice by oral administration, dose response; type: in vivo, (SJL/JxBALB/c)F1 mice; details: days -7 to 6 (Figure 5)
Protocol: Animals were examined daily from day 10 post induction for signs of disease. EAE was scored as follows: 0-no disease, 1-limp tail, 2-hind limb paralysis, 3-paralysis of all four limbs, 4-moribund condition, 5-death.
Induction of EAE - (SJL/xBALB/c)F1 mice were injected in all four footpads with 2mg mouse spinal cord homogenated (MSCH) emulsified in 1:1 ratio in CFA containing 1 mg/ml H37Ra (Difco Lab, Detroit, Mich). Pertussis toxin (250 ng/mouse, Sigma) was twice injected intravenously, once immediately after and again 48 hours later.
(SJL/JxBALB/c)F1 mice were fed 7 times with 0.1, 0.25 or 0.5 mg glatiramer acetate on days -7; -5; -3; 0; 2; 4 and 6 by gastric intubation. EAE was induced on day 0 by the injection of MSCH.

EAE [3] = experiment: Induction of EAE in Rhesus monkeys, oral enteric-coated capsules, clinical scoring (Example 3); type: in vivo
Protocol: Glatiramer acetate was provided by Teva Pharmaceutical Industries Ltd. in an enteric-coated hard gelatin capsule comprising two dosage levels: 1 mg of glatiramer acetate and 20 mg of glatiramer acetate. Each dosage level was formulated using mannitol, and coated with Eudragit L30D55. Placebo or control capsules comprised capsules containing 5 mg of sugar.
(§1) 3 Rhesus monkeys were treated as follows: One monkey served as control and was fed with placebo capsules (containing 5mg glucose only). The second and third monkeys were fed with glatiramer acetate containing capsules at a dose of 1mg/feeding and 20mg/feeding, respectively. Animals were fed every other day for a total of 10 feedings: 5 times prior to disease induction (immunization on day 0) and then 5 times after immunization.
(§2) Disease was induced on day 0 by an intradermal injection of 8mg bovine - MBP and 3 mg H37Ra M. tuberculosis in FCA into the hind footpads, total injected volume between 0.1 and 0.15 ml per footpad. The animals were followed for clinical manifestations of EAE, a variety of serum and CSF immunological markers and spinal cord and cranial MRI's.

PBL = experiment: Flow cytometry of peripheral blood lymphocytes (PBL); type: in vivo, Rhesus Monkeys; design: CD4+ / CD8+ / CD4+ CD45RA+ / CD8+ CD45RA+: unit not given here; details: for Ratio: CD4+/CD8+
Protocol: as §1, §2
The Epics C flow cytometer was used to analyze both peripheral blood lymphocytes (PBL) and cerebral spinal fluid (CSF) collected from each monkey. The red blood cells were lysed and the remaining white blood cells (WBCs) were washed and stained using standard methods with appropriate reagents. Tables 3 and 4 below show the data from staining PBL and CSF WBCs from the three animals in this Example.

[4] = animal 18497, 1mg/dose, day +13
[5] = animal 18497, 1mg/dose, day +20
[6] = animal 18497, 1mg/dose, day +27
[7] = animal 18498, 20 mg/dose, day +6
[8] = animal 18498, 20 mg/dose, day +13
[9] = animal 18498, 20 mg/dose, day +20
[10] = animal 18498, 20 mg/dose, day +27
[11] = animal 18498, 20 mg/dose, day -1

Question: Which “IFN-γ produced in response to GPBP stimulation” value [1] does the source give for glatiramer acetate here?
Answer: lower than in control groups

Question: What about the “IL-2 produced in response to GPBP stimulation” value [1] of the same substance?
Answer: lower than in control groups

Question: And the “suppression of EAE” value (EAE [2]; mice fed 7 times 0.1 mg)?
Answer: most effective dose

Question: What about the “suppression of EAE” value (EAE [2]; mice fed 7 times 0.25 mg) of the same substance?
Answer: less effective

Question: And the “suppression of EAE” value (EAE [2]; mice fed 7 times 0.5 mg)?
Answer: completely inactive

Question: What about the “day of first (minimal) symptoms” value (EAE [3]; animal 18497, 1mg/feeding, 10 feedings) of the same substance?
Answer: 25 days

Question: And the “time until clinical signs dropped to zero” value (EAE [3]; animal 18497, after day 33 fed 20mg capsules 5 times on alternate days, remained zero until day 60)?
Answer: ≤ 3 days

Question: And the clinical symptoms (EAE [3]; animal 18498, 20mg/feeding, 10 feedings, 60 day observation period, placebo animal score 4+ , sacrificed day 28)?
Answer: did not show any significant clinical symptoms

Question: What about the Ratio (PBL; animal 18497, 1mg/dose, day +6) of the same substance?
Answer: 1.26

Question: And the Ratio (PBL; [4])?
Answer: 1.09

Question: And the Ratio (PBL; [5])?
Answer: 1.28

Question: What about the Ratio (PBL; [6]) of the same substance?
Answer: 1.3

Question: What about the Ratio (PBL; animal 18497, 1mg/dose, day -1) of the same substance?
Answer: 0.97

Question: What about the Ratio (PBL; [7]) of the same substance?
Answer: 0.88

Question: And the Ratio (PBL; [8])?
Answer: 0.89

Question: What about the Ratio (PBL; [9]) of the same substance?
Answer: 0.47

Question: And the Ratio (PBL; [10])?
Answer: 0.71

Question: What about the Ratio (PBL; [11]) of the same substance?
Answer: 0.93

Question: And the “CD4+” value (PBL; animal 18497, 1mg/dose, day +6)?
Answer: 39

Question: And the “CD4+ CD45RA+” value (PBL; animal 18497, 1mg/dose, day +6)?
Answer: 24

Question: What about the “CD8+” value (PBL; animal 18497, 1mg/dose, day +6) of the same substance?
Answer: 31

Question: What about the “CD8+ CD45RA+” value (PBL; animal 18497, 1mg/dose, day +6) of the same substance?
Answer: 29

Question: And the “CD4+” value (PBL; [4])?
Answer: 37

Question: And the “CD4+ CD45RA+” value (PBL; [4])?
Answer: 16

Question: And the “CD8+” value (PBL; [4])?
Answer: 34

Question: And the “CD8+ CD45RA+” value (PBL; [4])?
Answer: 29

Question: And the “CD4+” value (PBL; [5])?
Answer: 41

Question: And the “CD4+ CD45RA+” value (PBL; [5])?
Answer: 18

Question: And the “CD8+” value (PBL; [5])?
Answer: 32

Question: And the “CD8+ CD45RA+” value (PBL; [5])?
Answer: 25

Question: And the “CD4+” value (PBL; [6])?
Answer: 35

Question: What about the “CD4+ CD45RA+” value (PBL; [6]) of the same substance?
Answer: 12

Question: What about the “CD8+” value (PBL; [6]) of the same substance?
Answer: 27

Question: And the “CD8+ CD45RA+” value (PBL; [6])?
Answer: 18

Question: And the “CD4+” value (PBL; animal 18497, 1mg/dose, day -1)?
Answer: 35

Question: And the “CD4+ CD45RA+” value (PBL; animal 18497, 1mg/dose, day -1)?
Answer: 21

Question: What about the “CD8+” value (PBL; animal 18497, 1mg/dose, day -1) of the same substance?
Answer: 36

Question: And the “CD8+ CD45RA+” value (PBL; animal 18497, 1mg/dose, day -1)?
Answer: 33

Question: And the “CD4+” value (PBL; [7])?
Answer: 37

Question: And the “CD4+ CD45RA+” value (PBL; [7])?
Answer: 23

Question: And the “CD8+” value (PBL; [7])?
Answer: 42

Question: What about the “CD8+ CD45RA+” value (PBL; [7]) of the same substance?
Answer: 32

Question: What about the “CD4+” value (PBL; [8]) of the same substance?
Answer: 41

Question: What about the “CD4+ CD45RA+” value (PBL; [8]) of the same substance?
Answer: 24

Question: What about the “CD8+” value (PBL; [8]) of the same substance?
Answer: 46

Question: What about the “CD8+ CD45RA+” value (PBL; [8]) of the same substance?
Answer: 37

Question: And the “CD4+” value (PBL; [9])?
Answer: 27

Question: And the “CD4+ CD45RA+” value (PBL; [9])?
Answer: 12

Question: And the “CD8+” value (PBL; [9])?
Answer: 57

Question: And the “CD8+ CD45RA+” value (PBL; [9])?
Answer: 41

Question: What about the “CD4+” value (PBL; [10]) of the same substance?
Answer: 37

Question: What about the “CD4+ CD45RA+” value (PBL; [10]) of the same substance?
Answer: 22

Question: What about the “CD8+” value (PBL; [10]) of the same substance?
Answer: 52

Question: And the “CD8+ CD45RA+” value (PBL; [10])?
Answer: 41

Question: What about the “CD4+” value (PBL; [11]) of the same substance?
Answer: 37

Question: And the “CD4+ CD45RA+” value (PBL; [11])?
Answer: 23

Question: And the “CD8+” value (PBL; [11])?
Answer: 40

Question: What about the “CD8+ CD45RA+” value (PBL; [11]) of the same substance?
Answer: 32
